# According to patent US9744203B2, “Application of composition in preparing health care product or medicine for preventing and treating leukopenia caused by radiotherapy and chemotherapy” (JIANGZHONG PHARMACEUTICAL CO., LTD., priority 2012, dated 2017):
# Where “and” joins values, the source holds several entries; their conditions need not be identical. Equal values may be shown once.
# Columns and labels:
# Type in all cases: in vivo
# [1] = test system: leucocyte reduction in mice induced by cyclophosphamide; experiment: Bone marrow nucleated cell count, mice injected with cyclophosphamide; conditions: cyclophosphamide model; one femur, day 15; positive control batyl alcohol 100 mg/kg intragastric
# Experimental: (§1) Mice were randomly divided into 6 groups with 10 animals per group, i.e., normal control group, model control group, positive control group, and groups on low, medium and high doses of Composition 1. The low-, medium- and high-dose groups were intragastrically given Composition 1 at a dose of 2.0 g crude drug/kg, 4.0 g crude drug/kg, and 12.0 g crude drug/kg, respectively; the positive control group was intragastrically given batyl alcohol (100 mg/kg) at a dose of 0.1 ml/10 g body weight; the normal control group and the model control group were intragastrically given an equivalent volume of distilled water; and the dosage regime lasted for 15 days with one dose per day. From day 9 of intragastrical administration, all mice in each group, except the normal control group, were given cyclophosphamide at a dose of 40 mg/kg each day via subcutaneous injection for 3 consecutive days. One hour after the intragastrical administration on day 15, blood and femurs were harvested for tests.
# (§2) Mice were sacrificed by cervical dislocation. The left femur was removed and flushed with a 10 ml solution of 3% acetic acid to obtain the cells in the bone marrow. The number of cells in 4 large grids on a hemacytometer was counted, and the number was multiplied by 2.5×10^4 to obtain the BMC in one femur.
# [2] = test system: leucocyte reduction in mice induced by X-ray radiation; experiment: Bone marrow nucleated cell count, mice after X-ray radiation; conditions: X-ray radiation model; one femur; positive control batyl alcohol 100 mg/kg intragastric
# [3] = test system: leucocyte reduction in mice induced by X-ray radiation; experiment: Peripheral leucocyte assay, leucocyte reduction in mice induced by X-ray radiation; conditions: X-ray radiation model; positive control batyl alcohol 100 mg/kg intragastric
# Experimental: [Worded in the source for another target; used here, by the source, with some conditions changed.] as §1
# (§3) 40 μL blood was drawn from the tail vein of the mice and transferred into a EDTA-K2 anticoagulative tube, into which 160 μL dilution liquid was added, and then assayed in an automatic blood cell analyzer. […]
# [4] = test system: leucocyte reduction in mice induced by cytarabine; experiment: Bone marrow nucleated cell count, mice injected with cytarabine; conditions: cytarabine model; one femur, day 15; positive control batyl alcohol 100 mg/kg intragastric
# Experimental: [Worded in the source for another target; used here, by the source, with some conditions changed.] as §1
# as §2, with “femur. […]” for “femur.”
# [5] = test system: leucocyte reduction in mice induced by cyclophosphamide; experiment: Bone marrow DNA content determination, mice injected with cyclophosphamide; conditions: cyclophosphamide model; absorbance at 268 nm, day 15; positive control batyl alcohol 100 mg/kg intragastric
# Experimental: as §1
# A 7 mm section was dissected from the middle of the right femur. The whole bone marrow was flushed into a centrifuge tube with a 10 mL solution of 0.005 mol/L CaCl2, placed in a refrigerator at 4° C. for 30 min, and then centrifuged at 2500 r/min for 15 min. […] The supernatant was removed and its absorbance at 268 nm was measured.
# [6] = test system: leucocyte reduction in mice induced by cytarabine; experiment: Peripheral leucocyte assay, leucocyte reduction in mice induced by cytarabine; conditions: cytarabine model; positive control batyl alcohol 100 mg/kg intragastric, 15 days
# Experimental: [Worded in the source for another target; used here, by the source, with some conditions changed.] as §1, §3
# [7] = test system: leucocyte reduction in mice induced by cyclophosphamide; experiment: Peripheral leucocyte assay, leucocyte reduction in mice induced by cyclophosphamide; conditions: cyclophosphamide model; positive control batyl alcohol 100 mg/kg intragastric, 15 days
# Experimental: as §1
# 40 μL blood was drawn from the tail vein of the mice and transferred into a EDTA-K2 anticoagulative tube, into which 160 μL dilution liquid was added, and then assayed in an automatic blood cell analyzer.
# Mice were randomly divided into 6 groups with 10 animals per group, i.e., normal control group, model control group, positive control group, and groups on low, medium and high doses of Composition 2. […]
compound,measurement,setting,value
"CCCCCCCCCCCCCCCCCCOCC(O)CO (stereo not shown) [Positive control, batyl alcohol]",Bone marrow BCM,[1],13.44 ± 2.36 ×10^6 and 11.87 ± 2.08 ×10^6 and 13.65 ± 2.42 ×10^6 and 14.73 ± 2.04 ×10^6 and 14.86 ± 2.28 ×10^6 and 15.72 ± 2.34 ×10^6
same,Bone marrow BCM,[2],13.20 ± 2.02 ×10^6 and 12.43 ± 2.29 ×10^6 and 13.69 ± 2.65 ×10^6 and 14.57 ± 2.57 ×10^6 and 13.92 ± 2.57 ×10^6 and 14.78 ± 2.44 ×10^6
same,WBC on day 8 after treatment,[3],3.66 ± 1.05 ×10^9 and 5.60 ± 1.28 ×10^9 and 5.87 ± 1.62 ×10^9 and 5.80 ± 1.44 ×10^9 and 5.32 ± 1.54 ×10^9 and 5.53 ± 1.28 ×10^9
same,WBC on day 15 after treatment,[3],6.92 ± 1.98 ×10^9 and 7.04 ± 1.87 ×10^9 and 7.49 ± 1.52 ×10^9 and 7.88 ± 1.61 ×10^9 and 7.80 ± 1.43 ×10^9 and 8.03 ± 1.59 ×10^9
same,Bone marrow BCM,[4],12.53 ± 2.24 ×10^6 and 13.95 ± 2.77 ×10^6 and 13.64 ± 2.19 ×10^6 and 14.32 ± 2.65 ×10^6 and 13.25 ± 2.31 ×10^6 and 13.58 ± 2.17 ×10^6
same,Bone marrow DNA,[5],0.610 ± 0.138 and 0.629 ± 0.150 and 0.625 ± 0.162 and 0.730 ± 0.150 and 0.755 ± 0.128 and 0.958 ± 0.138
same,WBC after modeling,[6],3.80 ± 1.03 ×10^9 and 4.67 ± 1.27 ×10^9 and 4.90 ± 1.43 ×10^9 and 4.16 ± 1.09 ×10^9 and 4.53 ± 1.28 ×10^9 and 6.62 ± 1.52 ×10^9
same,WBC after treatment,[6],6.54 ± 1.93 ×10^9 and 6.85 ± 1.70 ×10^9 and 7.10 ± 1.88 ×10^9 and 7.26 ± 1.90 ×10^9 and 7.54 ± 1.62 ×10^9 and 8.52 ± 1.55 ×10^9
same,WBC after modeling,[7],3.55 ± 1.21 ×10^9 and 4.64 ± 1.30 ×10^9 and 5.25 ± 1.30 ×10^9 and 6.13 ± 1.47 ×10^9 and 5.73 ± 1.60 ×10^9 and 6.25 ± 1.76 ×10^9
same,WBC after treatment,[7],6.20 ± 1.82 ×10^9 and 7.34 ± 1.59 ×10^9 and 7.56 ± 1.80 ×10^9 and 8.23 ± 1.54 ×10^9 and 7.89 ± 1.60 ×10^9 and 8.96 ± 1.93 ×10^9
